Laboratory results: ChEMBL document CHEMBL4483862, “Open-source discovery of chemical leads for next-generation chemoprotective antimalarials” (2018)

Tested on: Plasmodium berghei
Experiment: Luciferase/luciferin-expressing antifolate-resistant parasites were used to infect a culture of HepG2 cells that were pre-incubated with compounds. Infected hepatocytes emit light due to the luciferase reaction. Assay results are presented as the percent inhibition of light emission compared to control. […]
Format: functional
Details: sporozoite; for IC90: read-out: LUCIFERASE INFECTION ASSAY - IC90
[1] = read-out: LUCIFERASE INFECTION ASSAY - IC50

| Structure (SMILES) | IC90 [µM] | IC50 [1] [µM] | also measured |
| --- | --- | --- | --- |
| COc1cc(Nc2cncc(-c3ccc(N)cc3)n2)cc(OC)c1OC | 1.84 |  | IC50 (HEPG2TOX_HILL_SLOPE 1.6, HEPG2TOX_R_SQUARED 0.917, PBLUC_HILL_SLOPE 3.36, PBLUC_R_SQUARED 0.719, read-out: LUCIFERASE INFECTION ASSAY - IC50): 0.955 µM |
| CCOC(=O)c1cc(C#N)c(N2CCN(C(=O)Nc3cccc(C(F)(F)F)c3)CC2)nc1C(F)(F)F | > 6.4 |  | IC50 (PBLUC_HILL_SLOPE 16, PBLUC_R_SQUARED 0.406, read-out: LUCIFERASE INFECTION ASSAY - IC50): 6.3 µM |
| CCN1C/C(=C/c2ccc(OC)c(O)c2)C(=O)/C(=C/c2ccc(OC)c(O)c2)C1 | 4.05 |  | IC50 (HEPG2TOX_HILL_SLOPE 4, HEPG2TOX_R_SQUARED 0.984, PBLUC_HILL_SLOPE 15.6, PBLUC_R_SQUARED 0.475, read-out: LUCIFERASE INFECTION ASSAY - IC50): 3.52 µM |
| COc1ccc(C(=O)Nc2nc3ccc(C)cn3c2C(=O)NC2CCCC2)cc1 | 8.02 |  | IC50 (FFLUC_HILL_SLOPE 1.65, FFLUC_R_SQUARED 0.455, HEPG2TOX_HILL_SLOPE 5.25, HEPG2TOX_R_SQUARED 0.908, PBLUC_HILL_SLOPE 10.6, PBLUC_R_SQUARED 0.223, read-out: LUCIFERASE INFECTION ASSAY - IC50): 6.52 µM |
| O=C(CO/N=C/c1ccc(OCc2ccccc2)c(OCc2ccccc2)c1)N1CCCCCC1 | > 10 |  | IC50 (PBLUC_HILL_SLOPE 29.4, PBLUC_R_SQUARED 0.303, read-out: LUCIFERASE INFECTION ASSAY - IC50): 9.83 µM |
| Cc1ccccc1-c1ccc(CN2CCc3c(c(C(=O)NCc4ccccc4)nn3CCO)C2)cc1 | 2.98 |  | IC50 (PBLUC_HILL_SLOPE 9.2, PBLUC_R_SQUARED 0.549, read-out: LUCIFERASE INFECTION ASSAY - IC50): 2.35 µM |
| Cc1ccc(C)c(N2C(=O)C=CC2=O)c1 | > 16.4 |  | IC50 (PBLUC_HILL_SLOPE 15.1, PBLUC_R_SQUARED 0.421, read-out: LUCIFERASE INFECTION ASSAY - IC50): 14.8 µM |
| CCC(C)(C)NS(=O)(=O)c1ccc(-n2ncc(Cl)c(Cl)c2=O)cc1 | 1.45 |  | IC50 (HEPG2TOX_HILL_SLOPE 13.4, HEPG2TOX_R_SQUARED 0.912, PBLUC_HILL_SLOPE 13.3, PBLUC_R_SQUARED 0.601, read-out: LUCIFERASE INFECTION ASSAY - IC50): 1.23 µM |
| NC(=O)C(C(=O)/C=C/c1ccc(Cl)cc1)=C1SCCS1 | 7.51 |  | IC50 (HEPG2TOX_HILL_SLOPE 2.58, HEPG2TOX_R_SQUARED 0.837, PBLUC_HILL_SLOPE 4.23, PBLUC_R_SQUARED 0.508, read-out: LUCIFERASE INFECTION ASSAY - IC50): 4.47 µM |
| N#CC(c1nc(-c2ccc(Cl)cc2)cs1)N1CCc2ccccc2C1 (stereo not given) | > 10 | > 10 |  |
| COc1cc(OC)c(C2=CCN(c3cc(=O)n4ccccc4n3)CC2)c(OC)c1 | > 10 |  | IC50 (PBLUC_HILL_SLOPE 11.4, PBLUC_R_SQUARED 0.492, read-out: LUCIFERASE INFECTION ASSAY - IC50): 9.03 µM |
| Cc1nn2c(=O)cc(Cn3ccnc3)nc2s1 | > 10 | > 10 |  |
| COc1ccc(OC)c(CCNc2nc3cnc(-c4cccc(Cl)c4)cc3n2C)c1 | 1.4 |  | IC50 (HEPG2TOX_HILL_SLOPE 5.61, HEPG2TOX_R_SQUARED 0.886, PBLUC_HILL_SLOPE 7.64, PBLUC_R_SQUARED 0.579, read-out: LUCIFERASE INFECTION ASSAY - IC50): 1.05 µM |
| c1ccc(Oc2ccccc2-c2cn3c(-c4ccncc4)cnc3cn2)cc1 | 8.82 |  | IC50 (PBLUC_HILL_SLOPE 3.74, PBLUC_R_SQUARED 0.758, read-out: LUCIFERASE INFECTION ASSAY - IC50): 4.9 µM |
| CCC(NCC(O)COc1ccccc1C(C)C)C12CC3CC(CC(C3)C1)C2 (stereo not given) | > 10 | > 10 |  |
| CC1CCCCC1NC(=O)c1c[nH]c2ccc(Br)cc12 (stereo not given) | > 10 | > 10 |  |
| O=C1C=CC(=O)N1c1cccc(Br)c1 | > 13.1 |  | IC50 (PBLUC_HILL_SLOPE 13.6, PBLUC_R_SQUARED 0.314, read-out: LUCIFERASE INFECTION ASSAY - IC50): 12.9 µM |
| FC(F)(F)c1cccc(-c2ccc3nnc(-c4cccc(Cl)c4)n3c2)c1 | > 10 | > 10 |  |
| CC(C)(C)c1ccc(-c2n[nH]c(NC(=O)c3ccccc3Cl)c2Br)cc1 | > 7.63 |  | IC50 (PBLUC_HILL_SLOPE 11.9, PBLUC_R_SQUARED 0.175, read-out: LUCIFERASE INFECTION ASSAY - IC50): 7.07 µM |
| COc1cc(NS(=O)(=O)c2ccc3ccccc3c2)c(OC)cc1Cl | 4.48 | 2.78 |  |
| CCn1c(-c2ccccc2)c(C(=O)Cn2ncc(Cl)c(Cl)c2=O)c2ccccc21 | > 10 |  | IC50 (FFLUC_HILL_SLOPE 22, FFLUC_R_SQUARED 0.674, read-out: LUCIFERASE INFECTION ASSAY - IC50): > 10 µM |
| CN(C)C(=O)c1ccc(-c2cc3cnc(Nc4cccc(O)c4)cc3n2Cc2ccccc2)cc1 | 9.88 |  | IC50 (HEPG2TOX_HILL_SLOPE 12, HEPG2TOX_R_SQUARED 0.529, PBLUC_HILL_SLOPE 3.22, PBLUC_R_SQUARED 0.748, read-out: LUCIFERASE INFECTION ASSAY - IC50): 4.99 µM |
| Cc1nn2c(=O)c(Cc3ccccc3)c(C)[nH]c2c1-c1ccc(F)cc1 | 1.3 |  | IC50 (HEPG2TOX_HILL_SLOPE 0.716, HEPG2TOX_R_SQUARED 0.984, PBLUC_HILL_SLOPE 2.69, PBLUC_R_SQUARED 0.765, read-out: LUCIFERASE INFECTION ASSAY - IC50): 0.576 µM |

| Structure (SMILES) | IC90 [µM] | IC50 [1] [µM] | also measured |
| --- | --- | --- | --- |
| CC1(C)CC2CC(C)(CN2C(=O)CN2CCN(c3cccc(C(F)(F)F)c3)CC2)C1 (stereo not given) | > 10 |  | IC50 (PBLUC_HILL_SLOPE 7.96, PBLUC_R_SQUARED 0.534, read-out: LUCIFERASE INFECTION ASSAY - IC50): 9.19 µM |
| CCN1C(=O)N(CCc2ccccc2)C2(CCN(Cc3ccc(C)cc3)CC2)C1=O | > 8.14 |  | IC50 (PBLUC_HILL_SLOPE 4.45, PBLUC_R_SQUARED 0.239, read-out: LUCIFERASE INFECTION ASSAY - IC50): 6.04 µM |
| COc1ccc(CNC(=O)c2ccc3c(c2)NC(=O)C(C)S3)cc1OC (stereo not given) | > 10 | > 10 |  |
| Cc1noc2nc(C3CC3)cc(C(=O)N3CCC(C(N)=O)CC3)c12 | > 10 | > 10 |  |
| O=C(CC1(O)C(=O)Nc2ccccc21)c1ccc(OCC(=O)N2CCOCC2)cc1 (stereo not given) | > 10 | > 10 |  |
| CCC1c2ccsc2CCN1C(=O)C1CCN(S(=O)(=O)c2ccc(Cl)c([N+](=O)[O-])c2)CC1 (stereo not given) | > 10 | > 10 |  |
| O=C(Cc1nc(=O)c2c3c(sc2[nH]1)CCCC3)c1c[nH]c2ccccc12 | > 10 | > 10 |  |
| COC(=O)c1cc2ccccc2cc1OC(=O)COc1ccc(C#N)cc1 | > 10 | > 10 |  |
| COc1ccc(CN2CCN(C(=O)c3ccc(-n4cccn4)cc3)CC2)cc1F | > 10 |  | IC50 (HEPG2TOX_HILL_SLOPE 2.97, HEPG2TOX_R_SQUARED 0.899, PBLUC_HILL_SLOPE 2, PBLUC_R_SQUARED 0.568, read-out: LUCIFERASE INFECTION ASSAY - IC50): 3.44 µM |
| Cc1cc(SC(C)C(=O)N(Cc2ccccc2)Cc2ccccc2)nc2ccccc12 (stereo not given) | > 10 |  | IC50 (HEPG2TOX_HILL_SLOPE 0.863, HEPG2TOX_R_SQUARED 0.817, read-out: LUCIFERASE INFECTION ASSAY - IC50): > 10 µM |
| COc1cc(-c2cnc3cnc(-c4ccccc4Cl)cn23)ccc1O | > 9.38 |  | IC50 (PBLUC_HILL_SLOPE 17.8, PBLUC_R_SQUARED 0.0398, read-out: LUCIFERASE INFECTION ASSAY - IC50): 8.38 µM |
| Cc1ccc(-c2nc(SCCC(N)=O)[nH]c2-c2ccc(C)cc2)cc1 | > 10 | > 10 |  |
| COc1ncccc1C(=O)Nc1cc(Cl)cc(Cl)c1 | 3.83 |  | IC50 (PBLUC_HILL_SLOPE 56, PBLUC_R_SQUARED 0.566, read-out: LUCIFERASE INFECTION ASSAY - IC50): 3.68 µM |
| CCn1c2ccccc2c2cc(Nc3cc(-c4ccc(O)cc4)ncn3)ccc21 | 5.79 | 2.24 |  |
| COc1ccc(-c2cnc3ccc(-c4cccc(C(F)(F)F)c4)nn23)cc1OC | 9.93 |  | IC50 (PBLUC_HILL_SLOPE 15.4, PBLUC_R_SQUARED 0.158, read-out: LUCIFERASE INFECTION ASSAY - IC50): 8.61 µM |
| Cc1ccccc1CN1CCN2C(C(=O)NCc3cccc(Cl)c3)=COC2=NC1=O | > 10 | > 10 |  |
| Cc1onc(-c2c(Cl)cccc2Cl)c1C(=O)Nc1ccccc1SCc1noc(-c2cccs2)n1 | > 6.07 |  | IC50 (FFLUC_HILL_SLOPE 4.47, FFLUC_R_SQUARED 0.309, read-out: LUCIFERASE INFECTION ASSAY - IC50): > 6.07 µM |
| COc1ccc(CCNC(=O)c2ccccc2NC(=O)c2cc(OC)c(OC)c(OC)c2)cc1OC | > 6.67 |  | IC50 (PBLUC_HILL_SLOPE 2.16, PBLUC_R_SQUARED 0.652, read-out: LUCIFERASE INFECTION ASSAY - IC50): 3.54 µM |
| COc1ccc(C2=NOC(C(N)=O)C2)cc1OC (stereo not given) | 9.25 |  | IC50 (PBLUC_HILL_SLOPE 2.3, PBLUC_R_SQUARED 0.443, read-out: LUCIFERASE INFECTION ASSAY - IC50): 3.55 µM |
| CCOC(=O)C1(C)CCCN1C(=O)c1cccs1 (stereo not given) | > 12.3 | > 12.3 |  |
| O=C(Nc1ccc(Cl)cc1)Nc1ccc2c(c1)no[n+]2[O-] | 8.03 |  | IC50 (HEPG2TOX_HILL_SLOPE 58.7, HEPG2TOX_R_SQUARED 0.822, PBLUC_HILL_SLOPE 3.98, PBLUC_R_SQUARED 0.47, read-out: LUCIFERASE INFECTION ASSAY - IC50): 4.62 µM |
| Cc1cccc(-c2nnc(Sc3nc(C)nc4sc5c(c34)CCCC5)n2CC(N)=O)c1 | 1.1 |  | IC50 (HEPG2TOX_HILL_SLOPE 8.24, HEPG2TOX_R_SQUARED 0.61, PBLUC_HILL_SLOPE 14.6, PBLUC_R_SQUARED 0.735, read-out: LUCIFERASE INFECTION ASSAY - IC50): 0.944 µM |
